Measurements as given in paper PMC12689286, “Enhanced therapeutics of cabazitaxel via polycarboxylate conjugation: improved solubility, safety, and antitumor efficacy” (Frontiers in Immunology, 2025).

Legend:
Tissue distribution = details: for concentration at 15 min / concentration at 2 h / concentration at 4 h / concentration at 12 h: both, SD, rat, iv, 6 μmol/kg
Protocol: (§1) Male and female SD rats (200–220 g) received intravenous injections of CTX or CTX-DTPA (6 μmol/kg). CTX was dissolved in 2.5% Tween 80/2.5% EtOH/saline, while CTX-DTPA used saline alone. Blood samples were collected at 5 min to 24 h post-dose. Tissues (heart, liver, spleen, lung, kidney, thymus) and excreta were collected at 15 min, 2 h, 4 h, and 12 h. Plasma and tissue samples were processed by liquid-liquid extraction with n-butanol and analyzed via LC-MS/MS (Agilent Poroshell 120 EC-C18 column; 0.05% formic acid/acetonitrile gradient). Pharmacokinetic parameters were calculated using DAS 2.0 via non-compartmental analysis.

[1] = Plasma pharmacokinetics (non-compartmental); details: for AUC(0-t) / Cmax / Vd / clearance: both, SD, rat, iv, 6 umol/kg
Protocol: as §1

[2] = test system: DU145 prostate cancer model; assay: DU145 prostate cancer xenograft, tumor volume; type: in vivo, BALB/c nude mice; details: 3 μmol/kg tail vein, three times at 3-day intervals, control 500 ± 45 mm³
Protocol: (§2) All animal experiments were conducted in accordance with protocols approved by the Institutional Animal Care and Use Committee of Peking Union Medical College. Male BALB/c nude mice (6–8 weeks old) and female KM mice (6–8 weeks old) were purchased from Charles River Laboratories (Beijing, China) and maintained under specific pathogen-free conditions.
(§3) DU145 Prostate cancer model: DU145 cells (3×10^6 cells/mouse) were subcutaneously inoculated into the right flank of BALB/c nude mic. When tumors reached approximately 100 mm³, mice were randomly divided into four treatment groups (n=6/group): (a) Vehicle control; (b) CTX (3 μmol/kg); (c) CTX-TTHA (3 μmol/kg); (d) CTX-DTPA (3 μmol/kg). Treatments were administered via tail vein injection three times at 3-day intervals. Major organs were collected for histopathological examination after the final administration.

3T3 = assay: MTS cytotoxicity, 3T3 (non-tumor); type: cell-based; details: Mus musculus, NIH3T3, 3T3 non-tumor cell line
LN229 = assay: MTS cytotoxicity, LN229; type: cell-based; details: Homo sapiens, LN-229
Protocol: (§4) Human cancer cell lines were cultured in basic medium (10% fetal bovine serum (FBS)+1% double antibody solution) (Biological Industries) at 37°C in a 5% CO2 incubator. Effects of CTXs on cell proliferation and viability were measured by an MTS (Promega Corporation) assay. Absorbance values at 490 nm were measured using a microplate reader (Thermo Scientific, Varioskan Flash) ([22]).

[3] = DU145 xenograft model, body weight; type: in vivo, BALB/c nude mice; details: 3 μmol/kg, by day 7
Protocol: as §2, §3

Bel-7402 = assay: MTS cytotoxicity, Bel-7402; type: cell-based; details: Homo sapiens; Bel-7402, MTS
Protocol: as §4

[4] = MCF-7 xenograft model, survival; type: in vivo, BALB/c nude mice; details: MCF-7 model, 9.6 μmol/kg, n=6
Protocol: as §2
MCF-7 Breast Cancer Model: Female BALB/c nude mice bearing MCF-7 xenografts (2×10^6 cells/mouse) were randomized into treatment groups as described above, with an adjusted dose of 9.6 μmol/kg for all CTX formulations.

[5] = Lipid-aqueous (octanol/water) partition coefficient; type: physicochemical; details: room temperature
Protocol: CTXs were dissolved in octanol, and an equal volume of water was added, followed by shaken at 100 rpm for 24 h at room temperature. The upper octanol phase and lower water phase were separated by centrifugation. The supernatant was analyzed by HPLC (Bruker SolanX 70 FT-MS; Agilent 6540TOF) ([21]).

H358 = assay: MTS cytotoxicity, H358; type: cell-based; details: Homo sapiens, NCI-H358
Protocol: as §4

tubulin = molecular target: T1, tubulin (Sus scrofa, UniProt P02554); assay: Purified tubulin polymerization; type: biochemical; details: purified tubulin 3 mg/ml, 37°C
T1 construct: purchased Cytoskeleton BK006P
T1 sequence (P02554 whole entry): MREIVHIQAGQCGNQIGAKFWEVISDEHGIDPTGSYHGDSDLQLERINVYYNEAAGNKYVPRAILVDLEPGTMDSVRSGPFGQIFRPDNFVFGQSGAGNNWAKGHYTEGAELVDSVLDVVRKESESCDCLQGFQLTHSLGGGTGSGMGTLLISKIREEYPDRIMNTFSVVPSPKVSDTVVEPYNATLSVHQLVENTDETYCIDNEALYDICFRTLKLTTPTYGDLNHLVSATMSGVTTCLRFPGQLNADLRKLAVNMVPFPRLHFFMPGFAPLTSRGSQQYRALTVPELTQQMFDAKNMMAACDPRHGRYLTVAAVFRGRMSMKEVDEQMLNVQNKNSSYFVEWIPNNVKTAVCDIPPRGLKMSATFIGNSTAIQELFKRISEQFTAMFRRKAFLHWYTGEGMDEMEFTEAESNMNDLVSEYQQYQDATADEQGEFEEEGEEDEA
T1 sequence (P02550 whole entry partner): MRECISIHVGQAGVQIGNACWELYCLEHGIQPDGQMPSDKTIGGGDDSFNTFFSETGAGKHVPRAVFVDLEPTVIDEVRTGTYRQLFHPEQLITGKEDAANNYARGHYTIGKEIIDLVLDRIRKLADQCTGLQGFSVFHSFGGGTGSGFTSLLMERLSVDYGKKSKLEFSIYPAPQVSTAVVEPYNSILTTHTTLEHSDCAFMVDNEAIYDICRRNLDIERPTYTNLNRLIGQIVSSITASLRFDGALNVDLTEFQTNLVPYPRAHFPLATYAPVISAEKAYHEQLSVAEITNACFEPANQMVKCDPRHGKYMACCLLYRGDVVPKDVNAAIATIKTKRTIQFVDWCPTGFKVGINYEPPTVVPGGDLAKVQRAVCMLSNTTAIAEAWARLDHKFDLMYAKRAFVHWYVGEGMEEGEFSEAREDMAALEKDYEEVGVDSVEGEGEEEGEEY
Protocol: A tubulin polymerization assay kit (Cytoskeleton, BK006P) was used. Briefly, 10 μl of CTXs with a concentration of 100 μM in the general tubulin buffer and 100 μl of tubulin (3 mg/ml) in TP buffer were added on ice. The 96-well plate was immediately placed in a microplate reader at 37°C.

[6] = test system: rat red blood cells (RBCs); assay: Hemolysis test; type: cell-based, SD rats; details: vs unmodified CTX
Protocol: The hemolytic potential of CTX formulations was evaluated using rat red blood cells (RBCs). Briefly, whole blood was collected from the abdominal aorta of anesthetized SD rats into ACD anticoagulant (blood:ACD = 1:4, v/v). The blood was diluted with normal saline (4:5, v/v) and centrifuged at 450 g for 10 min. The RBC pellet was washed three times with normal saline until the supernatant was clear. The washed RBCs were then resuspended in normal saline to prepare a 2% (v/v) suspension.
For the assay, 500 μL of the 2% RBC suspension was mixed with an equal volume of serially diluted drugs or controls in 1.5 mL tubes. The controls included: Negative control (0% hemolysis): normal saline. Positive control (100% hemolysis): distilled water. Solvent control: the vehicle for unmodified CTX (2.5% Tween 80 + 2.5% anhydrous ethanol + 95% normal saline). The mixtures were incubated at 37 °C for 1.5 h and then centrifuged at 450 g for 5 min. Subsequently, 150 μL of the supernatant from each tube was transferred to a 96-well plate, and the absorbance at 545 nm (OD545) was measured using a microplate reader. The percentage of hemolysis was calculated using the following formula: Hemolysis (%) = [(ODsample - ODnegative control)/(ODpositive control - ODnegative control)] × 100.

[7] = SD rats, 6 μmol/kg iv, plasma, dosed compound itself

Structure (SMILES): CO[C@H]1C(=O)[C@]2(C)[C@@H](OC)C[C@H]3OC[C@@]3(OC(C)=O)[C@H]2[C@H](OC(=O)c2ccccc2)[C@]2(O)C[C@H](OC(=O)[C@H](O)[C@@H](NC(=O)OC(C)(C)C)c3ccccc3)C(C)=C1C2(C)C [CTX, Cabazitaxel]
- concentration at 15 min (Tissue distribution; heart): 43.2 ± 12.9 ng/g
- concentration at 2 h (Tissue distribution; heart): 24.6 ± 2.33 ng/g
- concentration at 4 h (Tissue distribution; heart): 16 ± 1.91 ng/g
- concentration at 12 h (Tissue distribution; heart): 12.6 ± 2.69 ng/g
- concentration at 15 min (Tissue distribution; kidney): 550 ± 12 ng/g
- concentration at 2 h (Tissue distribution; kidney): 313 ± 47.5 ng/g
- concentration at 4 h (Tissue distribution; kidney): 308 ± 41.5 ng/g
- concentration at 12 h (Tissue distribution; kidney): 218 ± 15.9 ng/g
- concentration at 15 min (Tissue distribution; liver): 149 ± 7.27 ng/g
- concentration at 2 h (Tissue distribution; liver): 78.7 ± 10.6 ng/g
- concentration at 4 h (Tissue distribution; liver): 48.7 ± 11.5 ng/g
- concentration at 12 h (Tissue distribution; liver): 29.3 ± 11.5 ng/g
- concentration at 15 min (Tissue distribution; lung): 133 ± 15 ng/g
- concentration at 2 h (Tissue distribution; lung): 117 ± 4.61 ng/g
- concentration at 4 h (Tissue distribution; lung): 106.8 ± 0.42 ng/g
- concentration at 12 h (Tissue distribution; lung): 79 ± 30.9 ng/g
- concentration at 15 min (Tissue distribution; spleen): 250 ± 38.3 ng/g
- concentration at 2 h (Tissue distribution; spleen): 160 ± 2.24 ng/g
- concentration at 4 h (Tissue distribution; spleen): 113 ± 21 ng/g
- concentration at 12 h (Tissue distribution; spleen): 54 ± 8.47 ng/g
- concentration at 15 min (Tissue distribution; thymus): 87.8 ± 23.5 ng/g
- concentration at 2 h (Tissue distribution; thymus): 129 ± 50 ng/g
- concentration at 4 h (Tissue distribution; thymus): 110 ± 41.8 ng/g
- concentration at 12 h (Tissue distribution; thymus): 67.2 ± 4.15 ng/g
- MRT0-t [1, 7]: 0.67 ± 0.09 H
- t1/2 [1, 7]: 1.27 ± 0.09 H
- AUC(0-t) ([1]; plasma): 1680 ± 194 ng·h/mL
- Cmax ([1]; plasma): 2930 ± 990 ng/mL
- Vd ([1]; plasma): 5.53 ± 0.81 L/kg
- clearance ([1]; plasma): 50.2 mL/min/kg
- final tumor volume [2]: 254 ± 35 mm³
- IC50 (3T3): 8.7 ± 3.2 nM
- IC50 (LN229): 8.5 ± 2.3 nM
- body weight loss [3]: > 15%
- IC50 (Bel-7402): 2.8 ± 0.5 nM
- survival [4]: 83.3%
- logP at 24 h [5]: 4.55 ± 0.1
- IC50 (H358): 1.2 ± 0.6 nM

Structure (SMILES): COC1C(=O)C2(C)C(OC)CC3OCC3(OC(C)=O)C2C(OC(=O)c2ccccc2)C2(O)CC(OC(=O)C(OC(=O)CN(CCN(CCN(CC(=O)O)CC(=O)O)CC(=O)O)CC(=O)O)C(NC(=O)OC(C)(C)C)c3ccccc3)C(C)=C1C2(C)C (stereo not drawn) [CTX-DTPA]
- concentration at 15 min (Tissue distribution; in vivo, tissue concentration, spleen, 15 min, SD rats 6 μmol/kg iv, dosed compound): 0.39 ± 0.04 ng/g
- concentration at 15 min (Tissue distribution; in vivo, tissue concentration, thymus, 15 min, SD rats 6 μmol/kg iv, dosed compound): 0.62 ± 0.05 ng/g
- tissue concentration (Tissue distribution; heart, 15 min, SD rats 6 μmol/kg iv, dosed compound): * 0.27 ± 0.04 μg/kg
- tissue concentration (Tissue distribution; heart, 2 h, SD rats 6 μmol/kg iv, dosed compound): *** 0.07 ± 0.03 μg/kg
- tissue concentration (Tissue distribution; heart, 4 h, SD rats 6 μmol/kg iv, dosed compound): *** 0.04 ± 0.00 μg/kg
- tissue concentration (Tissue distribution; heart, 12 h, SD rats 6 μmol/kg iv, dosed compound): ** 0.06 ± 0.03 μg/kg
- tissue concentration (Tissue distribution; kidney, 15 min, SD rats 6 μmol/kg iv, dosed compound): **** 41.08 ± 9.73 μg/kg
- tissue concentration (Tissue distribution; kidney, 2 h, SD rats 6 μmol/kg iv, dosed compound): ** 4.96 ± 1.67 μg/kg
- tissue concentration (Tissue distribution; kidney, 4 h, SD rats 6 μmol/kg iv, dosed compound): *** 1.55 ± 0.31 μg/kg
- tissue concentration (Tissue distribution; kidney, 12 h, SD rats 6 μmol/kg iv, dosed compound): **** 1.36 ± 0.84 μg/kg
- tissue concentration (Tissue distribution; liver, 15 min, SD rats 6 μmol/kg iv, dosed compound): *** 37.74 ± 16.89 μg/kg
- tissue concentration (Tissue distribution; liver, 2 h, SD rats 6 μmol/kg iv, dosed compound): ** 7.21 ± 1.30 μg/kg
- tissue concentration (Tissue distribution; liver, 4 h, SD rats 6 μmol/kg iv, dosed compound): * 6.74 ± 5.04 μg/kg
- tissue concentration (Tissue distribution; liver, 12 h, SD rats 6 μmol/kg iv, dosed compound): * 0.65 ± 0.42 μg/kg
- tissue concentration (Tissue distribution; lung, 15 min, SD rats 6 μmol/kg iv, dosed compound): *** 2.36 ± 1.29 μg/kg
- tissue concentration (Tissue distribution; lung, 2 h, SD rats 6 μmol/kg iv, dosed compound): **** 0.48 ± 0.50 μg/kg
- tissue concentration (Tissue distribution; lung, 4 h, SD rats 6 μmol/kg iv, dosed compound): **** 0.13 ± 0.01 μg/kg
- tissue concentration (Tissue distribution; lung, 12 h, SD rats 6 μmol/kg iv, dosed compound): * 1.10 ± 0.45 μg/kg
- tissue concentration (Tissue distribution; spleen, 15 min, SD rats 6 μmol/kg iv, dosed compound): *** 0.39 ± 0.04 μg/kg
- tissue concentration (Tissue distribution; spleen, 2 h, SD rats 6 μmol/kg iv, dosed compound): **** 0.09 ± 0.03 μg/kg
- tissue concentration (Tissue distribution; spleen, 4 h, SD rats 6 μmol/kg iv, dosed compound): ** 0.05 ± 0.02 μg/kg
- tissue concentration (Tissue distribution; spleen, 12 h, SD rats 6 μmol/kg iv, dosed compound): ** 0.05 ± 0.03 μg/kg
- tissue concentration (Tissue distribution; thymus, 15 min, SD rats 6 μmol/kg iv, dosed compound): ** 0.62 ± 0.05 μg/kg
- tissue concentration (Tissue distribution; thymus, 2 h, SD rats 6 μmol/kg iv, dosed compound): * 0.10 ± 0.07 μg/kg
- tissue concentration (Tissue distribution; thymus, 4 h, SD rats 6 μmol/kg iv, dosed compound): * 0.05 ± 0.01 μg/kg
- tissue concentration (Tissue distribution; thymus, 12 h, SD rats 6 μmol/kg iv, dosed compound): **** 0.06 ± 0.04 μg/kg
- elimination half-life relative to CTX ([1]; SD rats, 6 μmol/kg iv, longer than CTX): 5.1 fold
- MRT0-t [1, 7]: 1.04 ± 0.57 H
- AUC(0-t) ([1]; in vivo): 1330 ± 777 ng·h/mL
- Cmax ([1]; in vivo): 4360 ± 2880 ng/mL
- Vd ([1]; in vivo): 69.9 L/kg
- clearance ([1]; in vivo): 126 mL/min/kg
- final tumor volume [2]: 244 ± 32 mm³
- IC50 (3T3): 8.3 ± 2.7 nM
- IC50 (LN229): 5.8 ± 2.2 nM
- IC50 (Bel-7402): 2.9 ± 0.9 nM
- logP at 24 h [5]: 0.49 ± 0.12
- polymerization kinetics (tubulin): 43.7 ± 8.0 mOD/min
- IC50 (H358): 1.6 ± 0.7 nM
- improvement in hemocompatibility over unmodified CTX [6]: 64 fold
